Measurements published in paper PMC5814585, “Modulators of actin-myosin dissociation: basis for muscle type functional differences during fatigue” (American Journal of Physiology - Cell Physiology, 2017).

How the values were obtained:
[1] = tested on: actin.PsoS1 (rabbit psoas myosin S1 bound to pyrene-actin); assay: ATP-induced dissociation of pyr.actin.S1, stopped flow, pyrene fluorescence (fast, psoas); format: biochemical; details: for kobs of ATP-induced dissociation: 25 µM ATP; for activation energy (Ea) of K1k+2: Pso
Method: (§1) Myosin was prepared from the rabbit psoas (for fast MyHC-II) and the bovine masseter muscle (for slow MyHC-I) according to Margossian and Lowey ([41]), and was subsequently digested to subfragment 1 (S1) with chymotrypsin as described by Weeds and Taylor ([57]) which removes the regulatory light chain region.
(§2) Actin was prepared from rabbit muscle as described by Spudich & Watt ([52]) and labeled with pyrene iodoacetamide to give pyrene-labeled actin as described by Criddle et al. ([15]). Protein stocks of S1 and of pyrene-labeled actin were stored at 4°C and were used for up to 2 wk. In the text herein, reference to actin implies pyrene-labeled actin.
(§3) Stopped-flow experiments were performed essentially as described previously ([4]) using a HiTech Scientific SF-61DX2 stopped-flow system; 4–5 transients were acquired for each ATP transient (Kinetic Studio suite). The dead time of the equipment was 0.002 s. A wide temperature range (5–45°C) for measurements was available because of a new adaptation of the standard stopped-flow machine [see Ref. [56]). Briefly, the samples were held at room temperature (20°C) and then passed through a heat exchanger, at the temperature required for the measurement, just before entering the mixing chamber/observation chamber of the stopped flow. The samples were only exposed to the temperature of the measurement for a few seconds, thus allowing measurements of proteins under conditions where they are not usually stable for long.
(§4) The ATP-induced dissociation rate of actin.S1 was measured in the stopped flow by mixing a fixed concentration of pyr.actin.S1 complex (end concentration 0.25 µM) with excess ATP and monitoring fluorescence transients from the pyrene-labeled actin [excitation at 365 nm, emission through a KV389 nm cutoff filter (Schott, Mainz, Germany)]. Details of the kinetic analysis are given under Data Fitting and Interpretation Approach.
(§5) The averaged transients were fitted with a single (Eqn 1) or, if needed, a double exponential equation (Eqn 2):(1)) Ft=ΔF·e^(^−kobs·t)+F∞ or(2)) Ft=ΔF(1)·e^(^−kobs(1)·t)+ΔF(2)·e^(^−kobs(2)·t)+F∞ where Ft is the observed fluorescence at time t, F∞ is the fluorescence at the end of the transient (t = ∞) and ΔF is the total change of fluorescence observed. […] A plot of [ATP] vs. kobs was used to derive the values of K1 and k+2 (using Origin software version 6.0), as defined in Fig. 1 and Eqn 3.
(§6) The values of –Ea/R or or ΔH°/R were derived from the slopes.

[2] = biological target: T1, actin.MassS1 (bovine masseter myosin S1 bound to pyrene-actin) (Bos taurus, UniProt Q9BE39); assay: ATP-induced dissociation of pyr.actin.S1, stopped flow, pyrene fluorescence (slow, masseter); format: biochemical; parameters: reduction of amplitude of the dissociation reaction in the presence of phosphate / increase of activation energy by phosphate / activation energy (Ea) of K1k+2: dose or concentration left out as unconfirmed; details: for kobs of ATP-induced dissociation: 25 µM ATP; for activation energy (Ea) of K1k+2: Mass
T1 construct: from tissue; host or cells: bovine masseter muscle (myosin); rabbit muscle (actin)
Method: as §1, §2, §3
as §4, with “([…])” for “(end concentration 0.25 µM)”
as §5, §6

[3] = biological target: T2, actin.MassS1 (Bos taurus, UniProt Q9BE39); assay: ADP release rate constant (k-AD), ADP displacement by excess ATP; format: biochemical, bovine; parameters: effect of Pi on kobs of ADP release / increase in kobs of ADP release in the presence of phosphate / activation energy (Ea) of k−AD (ADP release): dose or concentration left out as unconfirmed; details: […] mM Pi
T2 construct: from tissue; host or cells: bovine masseter muscle (myosin); rabbit muscle (actin)
Method: Two types of myosins were studied which are known to differ in their dissociation constant for nucleotides ([5], [51]). The rate constant for the release of ADP (k−ADP) is relatively slow for masseter S1 and can easily be measured in an ADP displacement experiment. This step is very fast for a fast muscle isoform and too fast to measure by current equipment. Briefly, actin.^MassS1 saturated with 75 µM of ADP (A.M.D complex) was mixed with a large excess of ATP (8 mM) in the stopped flow. Then the kobs values, fitted to a single exponential equation (Eqn 1) defined the rate constant by which ADP is released by the ternary A.M.D complex (k−AD).
The temperature dependence of the above studied biochemical steps K1k+2, KADP, KPi, and KADP+Pi data were plotted as the natural logarithm of the measured parameter against the reciprocal of temperature in degrees Kelvin (1/T °K) and fitted with linear regression using the Arrhenius (rate constants) or Van’t Hoff (equilibrium constants) equations(7)) lnK1k+2=ln(A)−Ea/RT (8)) lnKeq=ΔS°/R−ΔH°/RT where Ea stands for activation energy, R is the gas constant, and A is a preexponential factor. The values of –Ea/R or or ΔH°/R were derived from the slopes.

Compound: Nc1ncnc2c1ncn2[C@@H]1O[C@H](COP(=O)(O)OP(=O)(O)OP(=O)(O)O)[C@@H](O)[C@H]1O [ATP]
- kobs of ATP-induced dissociation ([1]; 0.5 µM pyr-act.PsoS1, pH 7.0, 5°C): 84.8 s⁻¹
- kobs of ATP-induced dissociation ([1]; 0.5 µM pyr-act.PsoS1, pH 7.0, 25°C): 208.5 s⁻¹
- kobs of ATP-induced dissociation ([1]; 0.5 µM pyr-act.PsoS1, pH 7.0, 35°C): 296.9 s⁻¹
- kobs of ATP-induced dissociation ([1]; 0.5 µM pyr-act.PsoS1, pH 7.0, 43°C): 374.4 s⁻¹
- kobs of ATP-induced dissociation ([1]; 0.5 µM pyr-act.PsoS1, pH 7.0, […]°C): 136.2 s⁻¹
- kobs of ATP-induced dissociation ([1]; zero ADP, 20°C, pH 7.0): 87.7 s⁻¹
- activation energy (Ea) of K1k+2 ([1]; pH 6.2, + 30 mM Pi): 9.37 ± 0.382 kcal/mol
- activation energy (Ea) of K1k+2 ([1]; pH 6.2, no Pi, 5–43°C): 7 ± 0.19 kcal/mol
- activation energy (Ea) of K1k+2 ([1]; pH 7.0, + 30 mM Pi): 9.01 ± 0.287 kcal/mol
- activation energy (Ea) of K1k+2 ([1]; pH 7.0, no Pi, 5–43°C): 6.76 ± 0.19 kcal/mol
- activation energy of the dissociation rate constant ([1]; psoas, in the presence of phosphate, irrespective of pH): 9.08 ± 0.24 kcal/mol
- kobs of ATP-induced dissociation ([2]; 0.5 µM pyrAct.MassS1, pH 7.0, 5°C): 26.7 s⁻¹
- kobs of ATP-induced dissociation ([2]; 0.5 µM pyrAct.MassS1, pH 7.0, 25°C): 46.7 s⁻¹
- kobs of ATP-induced dissociation ([2]; 0.5 µM pyrAct.MassS1, pH 7.0, 35°C): 64.9 s⁻¹
- kobs of ATP-induced dissociation ([2]; 0.5 µM pyrAct.MassS1, pH 7.0, […]°C): 36.1 s⁻¹
- kobs of ATP-induced dissociation ([2]; zero ADP, 20°C, pH 7.0): 37.5 s⁻¹
- activation energy (Ea) of K1k+2 ([2]; pH 6.2, + […] mM Pi): 7.34 ± 0.17 kcal/mol
- activation energy (Ea) of K1k+2 ([2]; pH 6.2, no Pi, 5–43°C): 5.69 ± 0.263 kcal/mol
- activation energy (Ea) of K1k+2 ([2]; pH 7.0, + […] mM Pi): 7.15 ± 0.263 kcal/mol
- activation energy (Ea) of K1k+2 ([2]; pH 7.0, no Pi, 5–43°C): 6.14 ± 0.335 kcal/mol
- activation energy of the dissociation rate constant ([2]; masseter, in the presence of phosphate, irrespective of pH): 7.17 ± 0.24 kcal/mol

Compound: O=P(O)(O)O [Pi, inorganic phosphate]
- reduction of amplitude of the dissociation reaction in the presence of phosphate ([1]; PsoS1, 30 mM Pi): 50%
- increase of activation energy by phosphate ([1]; PsoS1, both pH values, 30 mM Pi vs no Pi): about 10 kJ/mol
- reduction of amplitude of the dissociation reaction in the presence of phosphate ([2]; MassS1, […] mM Pi): 50%
- increase of activation energy by phosphate ([2]; masseter, […] mM Pi vs no Pi): about 5 kJ/mol
- increase in kobs of ADP release in the presence of phosphate ([3]; pH 6.2): 30–50%
- effect of Pi on kobs of ADP release ([3]; pH 7.0): little effect
